Experimental data from patent US20240279230A1, “CRYSTALLINE FORMS OF A HER2 INHIBITOR” (Boehringer Ingelheim International GmbH, priority 2022, published 2024).
Entries after “also recorded” stand apart in the source; their conditions may differ.

Key:
Format in all cases: physicochemical
[1] = Thermogravimetric Analysis (TGA); conditions: 20° C./min
Method: The methodology for this can be as follows. Solid compounds (˜5 mg) are placed in an aluminium pan and sealed. The instrument used for the analysis is a TA Instruments TGA 550. The same sample lots from DSC testing are used for TGA testing. Processing is completed using TRIOS software.

[2] = Polymorphic stability of form III and form IV under stress storage, PXRD; conditions: 21 days
Method: A Bruker D2 Phaser X-Ray Diffractometer (XRD, EQ-SSRD-XRD-01) can be used for characterizing the samples. Raw results are evaluated using DIFFRAC.EVA (Bruker, V5.0) software. The Kα2 contribution was stripped, and a peak search was performed using peak search parameters (width 0.302 and threshold 1.0).
A test sample (approximately 0.3 g) is representatively subsampled into an agate-type mortar and pestle. Sample is ground for approximately one minute to achieve a fine homogenous powder. Sample is then transferred into a stainless-steel sample holder fitted with a zero-diffraction plate (ZDP). The sample holder is then levelled off with a glass slide to create a flat sample surface level with the sample holder.

[3] = Dynamic Vapor Sorption (DVS) sorption isotherms, hygroscopic behaviour; conditions: for Hygroscopicity: DVS classification; for Δm (0-80%), moisture absorbed at 80% RH / Δm (0-90%), maximum water uptake: DVS, 25.0 ±1.0° C.; for Δm (0-90%), maximum water uptake: up to 90% RH; for Hysteresis: between sorption and desorption curves
Method: The methodology for this can be as follows. The mass of the solids is monitored as the relative humidity (RH) was deliberately changed. The RH is cycled twice from 0% to 90% to 0% in 10% steps. The temperature during measurement is kept constantly at (25.0 ±1.0° C.) Each step is held until mass stability was achieved. A camera inside the instrument captured an image at the conclusion of each stage, allowing for the observation of any visual changes in the solid form during the analysis.

[4] = Chemical stability of solid state forms under temperature/humidity stress, related substances by HPLC at 252 nm; parameters: Impurity I / Impurity A / Impurity B / Impurity C / Impurity D / Impurity E / Impurity F / Impurity G / Impurity H: unit not given here
Description: To do so, control samples are stored refrigerated in the presence of desiccant for the duration of the study and measured simultaneously with stressed samples by HPLC at a wavelength of 252 nm.

[5] = Control 1, stored refrigerated with desiccant
[6] = Control 2, stored refrigerated with desiccant
[7] = Control 3, stored refrigerated with desiccant

C=CC(=O)NC1CCN(c2ncc3ncnc(Nc4ccc(Oc5ccc6c(c5)ncn6C)c(C)c4)c3n2)CC1 [Form III, N-{1-[8-({3-methyl-4-[(1-methyl-1H-1,3-benzodiazol-5-yl)oxy]phenyl}amino)-[1,3]diazino[5,4-d]pyrimidin-2-yl]piperidin-4-yl}prop-2-enamide]
TGA change in mass ([1]; Decomposition): 60.862% | TGA onset ([1]; Decomposition): 420.47 °C | TGA change in mass ([1]; Small mass loss event): 1.129% | TGA end ([1]; Small mass loss event): 240.02 °C | TGA onset ([1]; Small mass loss event): 231.13 °C | TGA change in mass ([1]; Small mass loss event, listed as form III): around 1% | Polymorphic stability by PXRD ([2]; open storage 90° C./3% RH): stable and conformed to form III reference standard | Polymorphic stability by PXRD ([2]; open storage 90° C./3% RH, listed as form III): neither form underwent phase changes | Polymorphic stability by PXRD ([2]; open storage 90° C./78% RH): stable and conformed to form III reference standard | Polymorphic stability by PXRD ([2]; open storage 90° C./78% RH, listed as form III): neither form underwent phase changes | Change in visual appearance during the humidity cycles ([3]; DVS camera images): No change in the visual appearance | Hygroscopicity [3]: slightly hygroscopic | Hygroscopicity ([3]; listed as form III): slightly hygroscopic | Δm (0-80%), moisture absorbed at 80% RH [3]: 1.2 wt % | Δm (0-80%), moisture absorbed at 80% RH ([3]; listed as form III): 1.2 wt % | Δm (0-90%), maximum water uptake [3]: 1.7 wt % | Δm (0-90%), maximum water uptake ([3]; listed as form III): 1.7 wt % | Phase change during DVS experiment ([3]; RH cycled twice 0% to 90% to 0%): no indication of irreversible phase conversion or hydrate formation; also recorded: no irreversible phase changes | Hysteresis [3]: no | Hysteresis ([3]; listed as form III): lack of hysteresis | Color change after stressing ([4]; 60-90° C., 3-79% RH, up to 21 days): No color changes | Impurity A ([4]; 60° C./75% RH, 21 days): 0.067 | Impurity B ([4]; 60° C./75% RH, 21 days): 0.012 | Impurity C ([4]; 60° C./75% RH, 21 days): 0.023 | Impurity D ([4]; 60° C./75% RH, 21 days): 0.134 | Impurity E ([4]; 60° C./75% RH, 21 days): 0.057 | Impurity F ([4]; 60° C./75% RH, 21 days): 0 | Impurity G ([4]; 60° C./75% RH, 21 days): 0.019 | Impurity H ([4]; 60° C./75% RH, 21 days): 0.140 | Impurity I ([4]; 60° C./75% RH, 21 days): 0.014 | Impurity A ([4]; 70° C./62% RH, 21 days): 0.064 | Impurity B ([4]; 70° C./62% RH, 21 days): 0.012 | Impurity C ([4]; 70° C./62% RH, 21 days): 0.024 | Impurity D ([4]; 70° C./62% RH, 21 days): 0.119 | Impurity E ([4]; 70° C./62% RH, 21 days): 0.059 | Impurity F ([4]; 70° C./62% RH, 21 days): 0.006 | Impurity G ([4]; 70° C./62% RH, 21 days): 0.019 | Impurity H ([4]; 70° C./62% RH, 21 days): 0.139 | Impurity I ([4]; 70° C./62% RH, 21 days): 0.015 | Impurity A ([4]; 75° C./41% RH, 21 days): 0.066 | Impurity B ([4]; 75° C./41% RH, 21 days): 0.011 | Impurity C ([4]; 75° C./41% RH, 21 days): 0.025 | Impurity D ([4]; 75° C./41% RH, 21 days): 0.118 | Impurity E ([4]; 75° C./41% RH, 21 days): 0.062 | Impurity F ([4]; 75° C./41% RH, 21 days): 0.009 | Impurity G ([4]; 75° C./41% RH, 21 days): 0.019 | Impurity H ([4]; 75° C./41% RH, 21 days): 0.136 | Impurity I ([4]; 75° C./41% RH, 21 days): 0.010 | Impurity A ([4]; 75° C./79% RH, 17 days): 0.066 | Impurity B ([4]; 75° C./79% RH, 17 days): 0.012 | Impurity C ([4]; 75° C./79% RH, 17 days): 0.031 | Impurity D ([4]; 75° C./79% RH, 17 days): 0.106 | Impurity E ([4]; 75° C./79% RH, 17 days): 0.074 | Impurity F ([4]; 75° C./79% RH, 17 days): 0 | Impurity G ([4]; 75° C./79% RH, 17 days): 0.005 | Impurity H ([4]; 75° C./79% RH, 17 days): 0.135 | Impurity I ([4]; 75° C./79% RH, 17 days): 0.015 | Impurity A ([4]; 80° C./11% RH, 21 days): 0.066 | Impurity B ([4]; 80° C./11% RH, 21 days): 0.011 | Impurity C ([4]; 80° C./11% RH, 21 days): 0.025 | Impurity D ([4]; 80° C./11% RH, 21 days): 0.123 | Impurity E ([4]; 80° C./11% RH, 21 days): 0.054 | Impurity F ([4]; 80° C./11% RH, 21 days): 0.007 | Impurity G ([4]; 80° C./11% RH, 21 days): 0.024 | Impurity H ([4]; 80° C./11% RH, 21 days): 0.141 | Impurity I ([4]; 80° C./11% RH, 21 days): 0.015 | Impurity A ([4]; 80° C./61% RH, 17 days): 0.052 | Impurity B ([4]; 80° C./61% RH, 17 days): 0.013 | Impurity C ([4]; 80° C./61% RH, 17 days): 0.024 | Impurity D ([4]; 80° C./61% RH, 17 days): 0.096 | Impurity E ([4]; 80° C./61% RH, 17 days): 0.060 | Impurity F ([4]; 80° C./61% RH, 17 days): 0.009 | Impurity G ([4]; 80° C./61% RH, 17 days): 0.020 | Impurity H ([4]; 80° C./61% RH, 17 days): 0.137 | Impurity I ([4]; 80° C./61% RH, 17 days): 0.015 | Impurity A ([4]; 90° C./3% RH, 21 days): 0.064 | Impurity B ([4]; 90° C./3% RH, 21 days): 0.012 | Impurity C ([4]; 90° C./3% RH, 21 days): 0.033 | Impurity D ([4]; 90° C./3% RH, 21 days): 0.087 | Impurity E ([4]; 90° C./3% RH, 21 days): 0.073 | Impurity F ([4]; 90° C./3% RH, 21 days): 0 | Impurity G ([4]; 90° C./3% RH, 21 days): 0.007 | Impurity H ([4]; 90° C./3% RH, 21 days): 0.140 | Impurity I ([4]; 90° C./3% RH, 21 days): 0.016 | Impurity A ([4]; 90° C./41% RH, 10 days): 0.066 | Impurity B ([4]; 90° C./41% RH, 10 days): 0.013 | Impurity C ([4]; 90° C./41% RH, 10 days): 0.025 | Impurity D ([4]; 90° C./41% RH, 10 days): 0.109 | Impurity E ([4]; 90° C./41% RH, 10 days): 0.060 | Impurity F ([4]; 90° C./41% RH, 10 days): 0 | Impurity G ([4]; 90° C./41% RH, 10 days): 0.022 | Impurity H ([4]; 90° C./41% RH, 10 days): 0.138 | Impurity I ([4]; 90° C./41% RH, 10 days): 0.013 | Impurity A ([4]; 90° C./78% RH, 21 days): 0.065 | Impurity B ([4]; 90° C./78% RH, 21 days): 0.011 | Impurity C ([4]; 90° C./78% RH, 21 days): 0.023 | Impurity D ([4]; 90° C./78% RH, 21 days): 0.112 | Impurity E ([4]; 90° C./78% RH, 21 days): 0.057 | Impurity F ([4]; 90° C./78% RH, 21 days): 0.006 | Impurity G ([4]; 90° C./78% RH, 21 days): 0.021 | Impurity H ([4]; 90° C./78% RH, 21 days): 0.133 | Impurity I ([4]; 90° C./78% RH, 21 days): 0.014 | Impurity A [4, 5]: 0.059 | Impurity B [4, 5]: 0.012 | Impurity C [4, 5]: 0.026 | Impurity D [4, 5]: 0.127 | Impurity E [4, 5]: 0.049 | Impurity F [4, 5]: 0.008 | Impurity G [4, 5]: 0.016 | Impurity H [4, 5]: 0.139 | Impurity I [4, 5]: 0.014 | Impurity A [4, 6]: 0.051 | Impurity B [4, 6]: 0.010 | Impurity C [4, 6]: 0.023 | Impurity D [4, 6]: 0.097 | Impurity E [4, 6]: 0.057 | Impurity F [4, 6]: 0.006 | Impurity G [4, 6]: 0.019 | Impurity H [4, 6]: 0.136 | Impurity I [4, 6]: 0.016 | Impurity A [4, 7]: 0.069 | Impurity B [4, 7]: 0.010 | Impurity C [4, 7]: 0.024 | Impurity D [4, 7]: 0.143 | Impurity E [4, 7]: 0.051 | Impurity F [4, 7]: 0.007 | Impurity G [4, 7]: 0.019 | Impurity H [4, 7]: 0.139 | Impurity I [4, 7]: 0.016 | Increase in related substances ([4]; accelerated stress conditions, up to 21 days at 90° C./78% RH): no significant increase in any related substance | Chemical stability in the solid state ([4]; up to 21 days at 90° C./78% RH): chemically very stable
